According to ChEMBL document CHEMBL5356986, “Research status of indole-modified natural products” (RSC Med Chem, 2023):
In brackets after ≈: the same amount, converted by molar mass.

Experiments:
[1] = tested on: Human immunodeficiency virus 1; assay: Antiviral activity against HIV-1 harboring integrase L74M mutant; type: functional, organism-based
HL-60 = assay: Cytotoxicity against human HL-60 cells assessed as reduction in cell viability incubated for 48 hrs by MTT assay; type: functional, cell-based; settings: HL-60, 48 h
[2] = Cytotoxicity against human A549 cells assessed as cell growth inhibition measured after 24 hrs by MTT assay; type: functional, cell-based
SMMC-7721 = assay: Cytotoxicity against human SMMC-7721 cells assessed as reduction in cell viability incubated for 48 hrs by MTT assay; type: functional, cell-based; settings: SMMC-7721, 48 h
MCF7 [3] = assay: Cytotoxicity against human MCF7 cells assessed as reduction in cell growth; type: functional, cell-based
SW480 = assay: Cytotoxicity against human SW480 cells assessed as cell growth inhibition; type: functional, cell-based
HeLa [4] = assay: Antiproliferative activity against human HeLa cells assessed as reduction in cell growth; type: functional, cell-based
K562 = assay: Antiproliferative activity against human K562 cells assessed as cell growth inhibition by MTT assay; type: functional, cell-based
HeLa [5] = assay: Antiproliferative activity against human HeLa cells assessed as inhibition of cell growth incubated for 72 hrs by MTT assay; type: functional, cell-based
HT-29 = assay: Antiproliferative activity against human HT-29 cells assessed as inhibition of cell proliferation by MTT assay; type: functional, cell-based
MCF7 [6] = assay: Antiproliferative activity against human MCF7 cells assessed as inhibition of cell growth after overnight incubation by MTT assay; type: functional, cell-based
Alpha glucosidase = Alpha glucosidase (Homo sapiens, UniProt O43451+P10253+P14410+Q2M2H8); assay: Inhibition of alpha glucosidase (unknown origin) measured after 60 mins; type: protein assay
MCF7 [7] = assay: Cytotoxicity against human MCF7 cells assessed as reduction in cell viability after 48 hrs by SRB assay; type: functional, cell-based; settings: MCF7, 48 h
A549 = assay: Antiproliferative activity against human A549 cells assessed as reduction in cell viability by MTT assay; type: functional, cell-based
HeLa [8] = assay: Cytotoxicity against human HeLa cells assessed as reduction in cell viability; type: functional, cell-based
HepG2 = assay: Cytotoxicity against human HepG2 cells assessed as reduction in cell viability measured after 48 hrs by MTT colorimetric based assay; type: functional; settings: HepG2, 48 h
SGC-7901 = assay: Cytotoxicity against human SGC-7901 cells assessed as reduction in cell viability measured after 48 hrs by MTT colorimetric assay; type: functional, cell-based; settings: SGC-7901, 48 h
RPMI-8226 = assay: Growth inhibition of human RPMI-8226 cells; type: functional
CCRF-CEM = assay: Growth inhibition of human CCRF-CEM cells; type: functional
[9] = Antioxidant activity assessed as DPPH radical scavenging activity measured after 30 mins; type: functional
Staphylococcus aureus [10] = assay: Antibacterial activity against methicillin-resistant Staphylococcus aureus assessed as reduction in microbial growth; type: functional
Enterococcus faecalis = assay: Antibacterial activity against Enterococcus faecalis assessed as reduction in bacterial growth; type: functional
Staphylococcus aureus [11] = assay: Antibacterial activity against Staphylococcus aureus […] assessed as reduction in microbial growth; type: functional
Staphylococcus aureus [12] = assay: Antibacterial activity against Staphylococcus aureus ATCC 29213 assessed as reduction in microbial growth; type: functional
Escherichia coli = assay: Antibacterial activity against Escherichia coli assessed as reduction in bacterial growth by broth microdilution method; type: functional
Acinetobacter baumannii = assay: Antibacterial activity against Acinetobacter baumannii assessed as reduction in bacterial growth by broth microdilution method; type: functional
Bel-7402 = assay: Cytotoxicity against human Bel-7402 cells assessed as reduction in cell viability measured after 72 hrs by MTT assay; type: functional, cell-based; settings: Bel-7402, 72 h
H4 = assay: Antiproliferative activity against human H4 cells assessed as cell growth inhibition; type: functional, cell-based

In the case of `C=C(C)[C@@H]1CC[C@]2(C(=O)N3CCN(C(=O)/C=C/c4ccc5[nH]ccc5c4)CC3)CC[C@]3(C)[C@H](CC[C@@H]4[C@@]5(C)CC[C@H](OC(=O)CC(C)(C)C(=O)O)C(C)(C)[C@@H]5CC[C@]43C)[C@@H]12`, the IC50 [1] is reported as 0.05 µM.

With `COC(=O)C1=CO[C@@H](OC)[C@@H]2C(C(NCCc3c[nH]c4ccccc34)NCCc3c[nH]c4ccccc34)=CC[C@H]12` the IC50 (HL-60) was 0.9 µM, the IC50 [2] was 3.64 µM and the IC50 (SMMC-7721) was 3.52 µM. It also gave an IC50 (MCF7 [3]) of 3.1 µM and an IC50 (SW480) of 2.53 µM.

`COc1cc([C@@H]2c3cc4c(cc3[C@H](NC(=O)C(=O)c3cn(Cc5ccccc5Cl)c5ccc(F)cc35)[C@H]3COC(=O)[C@H]23)OCO4)cc(OC)c1OC` gave an IC50 (HeLa [4]) of 0.15 µM and an IC50 (K562) of 0.4 µM.

`CCOC(=O)c1[nH]c2cc(OC)ccc2c1/C=C/C(=O)c1cc(OC)c(OC)c(OC)c1` gave an IC50 (HeLa [5]) of 0.84 µM, an IC50 (HT-29) of 0.13 µM and an IC50 (MCF7 [6]) of 0.24 µM.

With `C=C(C)[C@@H]1CC[C@]2(C(=O)NCC(=O)O)CC[C@]3(C)[C@H](CC[C@@H]4[C@@]5(C)Cc6c([nH]c7ccccc67)C(C)(C)[C@@H]5CC[C@]43C)[C@@H]12` the IC50 (Alpha glucosidase) was 1.8 µM.

With `COc1ccc2c(/C=N/[C@H]3c4cc5c(cc4[C@@H](c4cc(OC)c(OC)c(OC)c4)[C@H]4C(=O)OC[C@@H]43)OCO5)cn(Cc3ccccc3F)c2c1` the IC50 (HeLa [4]) was 0.79 µM.

Work on `COc1ccc2[nH]c(C(=O)OC3O[C@@H]4O[C@@]5(C)CC[C@H]6[C@H](C)CC[C@@H]([C@H]3C)[C@@]46OO5)cc2c1` (some centres not stated) yielded an IC50 (MCF7 [7]) of 14.5 µM and an IC50 (A549) of 13.4 µM.

Molecule `COC(=O)c1[nH]c2ccccc2c1/C=C/C(=O)c1cc(OC)c(OC)c(OC)c1` has an IC50 (HeLa [5]) of 2 µM, an IC50 (HT-29) of 7.3 µM and an IC50 (MCF7 [6]) of 1.1 µM.

`COc1ccc(/C=C\c2cc(OC)c(OC)c(OC)c2)cc1O` [COMBRETASTATIN A4] showed an IC50 (HeLa [8]) of 0.21 µM.

`C[C@H]1[C@H](C)CC[C@]2(C(=O)O)CC[C@]3(C)C(=CC[C@@H]4[C@@]5(C)CC[C@H](O)C(C)(C)[C@@H]5CC[C@]43C)[C@H]12` [URSOLIC ACID] gave an IC50 (HepG2) greater than 20 µM and an IC50 (SGC-7901) greater than 20 µM.

With `C=C1C(=O)O[C@@H]2C3O[C@]3(C)CC/C=C(\C)CC[C@@H]12` (some centres not stated) the GI50 (RPMI-8226) was 8.2 µM and the GI50 (CCRF-CEM) was 9.16 µM.

`O=C(/C=C/c1ccc(O)c(O)c1)Nc1ccc2[nH]ccc2c1` showed an EC50 [9] of 51 µM.

For `CCOC(=O)c1[nH]c2ccc(OC)cc2c1/C=C/C(=O)c1cc(OC)c(OC)c(OC)c1`, the IC50 (HeLa [5]) was 0.33 µM, the IC50 (HT-29) was 0.39 µM and the IC50 (MCF7 [6]) was 0.46 µM.

In the case of `CCn1cc(C(=O)O)c(=O)c2cc(F)c(N3CCNCC3)cc21` [NORFLOXACIN], the MIC (Staphylococcus aureus [10]) is reported as 4 µg/mL, the MIC (Enterococcus faecalis) is reported as 4 µg/mL (≈ 12.5 µM) and the MIC (Staphylococcus aureus [11]) is reported as 4 µg/mL. It also gave an MIC (Staphylococcus aureus [12]) of 2 µg/mL, an MIC (Escherichia coli) of 2 µg/mL (≈ 6.26 µM) and an MIC (Acinetobacter baumannii) of 2 µg/mL (≈ 6.26 µM).

Work on `COC(=O)[C@]1(C)CC[C@]2(C)CC[C@]3(C)C4=CC(c5c[nH]c6cc(C)ccc56)=C5C(=CC(OC)C(OC)=C5C)[C@]4(C)CC[C@@]3(C)[C@@H]2C1` (some centres not stated) yielded an IC50 (Bel-7402) of 0.02 µM.

Work on `C=C1C(=O)O[C@H]2[C@H]1CC1C(COC(=O)c3cc4ccccc4[nH]3)=CCC[C@@]3(C)O[C@@]123` (some centres not stated) yielded a GI50 (RPMI-8226) of 0.26 µM and a GI50 (CCRF-CEM) of 0.28 µM.

`C=C1C(=O)O[C@H]2[C@H]1CC1C(COC(=O)/C=C/c3c[nH]c4ccccc34)=CCC[C@@]3(C)O[C@@]123` (some centres not stated) gave a GI50 (RPMI-8226) of 0.03 µM and a GI50 (CCRF-CEM) of 0.07 µM.

Molecule `COC(=O)C1=CO[C@@H](OC)[C@@H]2C(C(NCCc3c[nH]c4ccc(OC)cc34)NCCc3c[nH]c4ccc(OC)cc34)=CC[C@H]12` has an IC50 (HL-60) of 0.43 µM, an IC50 [2] of 1.18 µM and an IC50 (SMMC-7721) of 0.69 µM. It also gave an IC50 (MCF7 [3]) of 0.58 µM and an IC50 (SW480) of 0.89 µM.

Work on `COc1ccc(/C=C\c2cc(OC)c(OC)c(OC)c2)cc1OC(=O)c1cccc(-n2cc(CCOC(=O)[C@H](N)Cc3cn(C)c4ccccc34)nn2)c1` yielded an IC50 (HeLa [8]) of 0.07 µM.

With `COc1cc([C@@H]2c3cc4c(cc3[C@H](NCc3c[nH]c5ccccc35)[C@H]3COC(=O)[C@H]23)OCO4)cc(OC)c1OC` the IC50 (HeLa [4]) was 0.1 µM.

Molecule `CC1=C(O)C(=O)C=C2C1=CC=C1[C@@]2(C)CC[C@@]2(C)[C@@H]3C[C@](C)(C(=O)O)CC[C@]3(C)CC[C@]12C` [CELASTROL] has an IC50 (H4) of 2.09 µM and an IC50 (Bel-7402) of 1.55 µM.
